The record followed here is US11441142B2, “FLS variant having increased activity” (KONKUK UNIVERSITY INDUSTRIAL COOPERATION CORPORATION, priority 2017, dated 2022).

Type in all cases: biochemical
The target in assay [1] is T1, Pseudomonas fluorescens FLS (formolase) variant FLS:L482R, SEQ ID NO: 11 (Pseudomonas fluorescens, UniProt Q9F4L3, A28I/A394G/A480W/G419N/L482R/L90T/R188H/W89R).
T1 sequence (Q9F4L3 1-563 A28I/A394G/A480W/G419N/L482R/L90T/R188H/W89R): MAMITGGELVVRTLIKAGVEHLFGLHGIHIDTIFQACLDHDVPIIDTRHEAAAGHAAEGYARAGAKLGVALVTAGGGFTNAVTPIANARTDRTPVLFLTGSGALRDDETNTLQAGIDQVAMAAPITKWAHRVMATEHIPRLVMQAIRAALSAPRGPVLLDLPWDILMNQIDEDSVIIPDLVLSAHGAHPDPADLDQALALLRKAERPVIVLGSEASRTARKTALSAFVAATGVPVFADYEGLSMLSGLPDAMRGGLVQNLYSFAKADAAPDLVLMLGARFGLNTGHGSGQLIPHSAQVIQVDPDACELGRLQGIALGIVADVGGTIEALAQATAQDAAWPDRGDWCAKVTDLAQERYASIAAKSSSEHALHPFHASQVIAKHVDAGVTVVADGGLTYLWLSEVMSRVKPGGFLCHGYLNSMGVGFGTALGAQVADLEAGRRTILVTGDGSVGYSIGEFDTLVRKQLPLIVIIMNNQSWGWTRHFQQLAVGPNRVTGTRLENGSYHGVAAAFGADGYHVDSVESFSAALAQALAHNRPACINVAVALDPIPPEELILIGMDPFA
The experiment in a line: kinetic parameters of FLS:L482R. To be noted: substrate acetaldehyde. Here is the method:
(§1) The kinetic parameters of EtDH and EtDH:D46G were identified by reacting the EtDH and EtDH:D46G with a reaction mixture containing 100 mM glycine-NaOH buffer solution (pH 9.5), 5 mM Mg^2+, 3 mM NAD^+/NADP^+ and 0.5 to 100 mM ethanol at room temperature. The kinetic parameters of FLS and variants thereof were identified by reacting FLS and variants thereof with a reaction mixture containing 100 mM phosphate buffer solution (pH 8.0), 1 mM Mg^+, 0.1 mM TPP and 0.5 to 20 mM acetaldehyde at room temperature. The kinetic parameters of BDH and BDH:S199A were identified by reacting BDH and BDH:S199A with a reaction mixture containing 50 mM Tris-HCl buffer solution (pH 7.5), 0.2 mM NADPH, 1 mM DTT; 0.5 to 100 mM acetoin or 0.5 to 10 mM butanone at room temperature. The Km and kcat values were identified using nonlinear regression fitting of the Michaelis-Menten equation and the fitting were repeated three times.
(§2) In order to compare the catalytic efficiencies via measurement of kinetic parameters of cascade enzymes and variants thereof in accordance with the present disclosure, the following experiment was performed. Specifically, the kinetic parameters of EtDH and EtDH:D46G were identified by reacting EtDH and EtDH:D46G with a reaction mixture containing 100 mM glycine-NaOH buffer solution (pH 9.5), 5 mM Mg^2+, 3 mM NAD^+/NADP^+ and 0.5 to 100 mM ethanol at room temperature. […]

The target of assay [2] is T2, Pseudomonas fluorescens FLS (formolase), wild type, SEQ ID NO: 8 (Pseudomonas fluorescens, UniProt Q9F4L3, A28I/A394G/A480W/G419N/L90T/R188H/W89R).
T2 sequence (Q9F4L3 1-563 A28I/A394G/A480W/G419N/L90T/R188H/W89R): T1 sequence (Q9F4L3 1-563 A28I/A394G/A480W/G419N/L482R/L90T/R188H/W89R) with R482L
The assay can be described thus: kinetic parameters of FLS. As to conditions: substrate acetaldehyde, coenzyme TPP (0.1 mM), pH 8.0, room temperature. Here is the method: as §1, §2

Assay [3] concerns Pseudomonas fluorescens FLS (formolase) variant FLS:L482E, SEQ ID NO: 12. The experiment in a line: kinetic parameters of FLS:L482E. To be noted: substrate acetaldehyde, coenzyme TPP. On the procedure: as §1, §2
Assay [4] concerns the target T3, Pseudomonas fluorescens FLS (formolase) variant FLS:L482E, SEQ ID NO: 12 (Pseudomonas fluorescens, UniProt Q9F4L3, A28I/A394G/A480W/G419N/L482E/L90T/R188H/W89R).
T3 sequence (Q9F4L3 1-563 A28I/A394G/A480W/G419N/L482E/L90T/R188H/W89R): T1 sequence (Q9F4L3 1-563 A28I/A394G/A480W/G419N/L482R/L90T/R188H/W89R) with R482E
The assay can be described thus: kinetic parameters of FLS:L482E. As to conditions: substrate acetaldehyde, coenzyme TPP (0.1 mM), pH 8.0, room temperature. Here is the method:
as §1, §2

The target of assay [5] is T4, Pseudomonas fluorescens FLS (formolase) variant FLS:L482S, SEQ ID NO: 10 (Pseudomonas fluorescens, UniProt Q9F4L3, A28I/A394G/A480W/G419N/L482S/L90T/R188H/W89R).
T4 sequence (Q9F4L3 1-563 A28I/A394G/A480W/G419N/L482S/L90T/R188H/W89R): T1 sequence (Q9F4L3 1-563 A28I/A394G/A480W/G419N/L482R/L90T/R188H/W89R) with R482S
The assay can be described thus: kinetic parameters of FLS:L482S. As to conditions: substrate acetaldehyde. Here is the method: as §1, §2

The mark [6] stands for this setting: coenzyme TPP (0.1 mM), pH 8.0, room temperature.

Positions count from the first letter of the chain named.

Turning to `CC=O` [Acetaldehyde], the “increase of catalyst efficiency (kcat/Km) compared to wild-type FLS” value was found to be 37.84% in assay [1] (coenzyme TPP), 25.62% in assay [3] and 72.95% in assay [5] (coenzyme TPP). The kcat/Km in assay [1] (setting [6]) was 10.6 M⁻¹ s⁻¹; in assay [2], 7.69 M⁻¹ s⁻¹; in assay [4], 9.66 M⁻¹ s⁻¹; in assay [5] (setting [6]), 13.3 M⁻¹ s⁻¹.

The term kcat/Km denotes the turnover number divided by the Michaelis constant.
